# Source: patent publication US20130190237A1, “METHODS FOR CATEGORISING CANCER SUCH AS BREAST CANCER” (IMPERIAL INNOVATIONS LIMITED, priority 2010, published 2013)
# Residues, ends and D or L forms follow the SMILES beside them. *: point of attachment. Cbz = O=C(OCc1ccccc1)*
# Experiments:
# [1] = test system: ERα protein in MCF7 cells; assay: Western blotting of ERα protein levels; format: cell-based, human; conditions: for ERα protein levels under LMTK3 silencing with co-treatment: MCF7, LMTK3 siRNA plus compound
# Procedure: (A) MCF7 cells (1×10^6) were plated in 10 cm^2 plates in phenol red-free DMEM containing 10% DSS. The following day, cells were transfected with 20 nM CT siRNA or LMTK3 siRNA for 72 h and then treated or not (ET-OH) with E2 (10 nM) for 24 h. Cells were harvested, lysed and equal protein amounts were subjected to Western Blotting analysis using the indicated antibodies. β-actin was used as a control for sample loading. (B) Quantitative analysis of ERα and LMTK3 protein levels is given as fold of control. […] (C) MCF7 cells (5×10^4) were plated in 24-well plates and transfected with 20 nM CT siRNA or LMTK3 siRNA for 48 h. Gene expression of ERα was measured by qRT-PCR.
# (§1) Whole cell lysates were prepared using NP40 lysis buffer (50 mM Tris-HCl, pH 8.0, 150 mM NaCl, 10% (v/v) glycerol, 1% NP40, 5 mM dithiothreitol (DTT), 1 mM EDTA, 1 mM EGTA, 50 μM leupeptin and 30 μg/ml aprotinin). These extracts were then clarified by centrifugation at 15000 rpm for 15 min at 4° C. for western blotting. The bicinchoninic acid (BCA) protein assay (Pierce) was used to determine the protein concentration of the lysates. […] The membranes were then blocked in TBS containing 0.1% (v/v) Tween20 and 5% (w/v) non-fat milk for 1 h and subsequently probed overnight with different antibodies following extensive washing with TBS/Tween and incubation with HRP-conjugated goat anti-rabbit IgG or goat anti-mouse IgG (1:1000 dilution) for 45 mins. Enhanced chemiluminescence (ECL) detection then allowed detection of the immunocomplexes. The intensity of the bands were quantified using Image J software (NIH, Bethesda, Md.).
# as §1, with “45 min.” for “45 mins.”, “the immuno-complexes.” for “the immunocomplexes.”, “bands was” for “bands were”
# [2] = molecular target: T1, LMTK3 kinase domain (Homo sapiens, UniProt Q96Q04); assay: LMTK3 inhibitor screening assay (CisBio KinEASE STK S1 kit, ratiometric fluorescent read-out); format: biochemical; conditions: for Average % Inhibition / Average pIC50: 10 nM LMTK3, 1 μM S1 peptide, ATP 10 μM; for Average pIC50: 120 mins at 37° C., N=5
# T1 construct: GST (N); made in house; host or cells: insect cells
# T1 sequence (Q96Q04 133-415): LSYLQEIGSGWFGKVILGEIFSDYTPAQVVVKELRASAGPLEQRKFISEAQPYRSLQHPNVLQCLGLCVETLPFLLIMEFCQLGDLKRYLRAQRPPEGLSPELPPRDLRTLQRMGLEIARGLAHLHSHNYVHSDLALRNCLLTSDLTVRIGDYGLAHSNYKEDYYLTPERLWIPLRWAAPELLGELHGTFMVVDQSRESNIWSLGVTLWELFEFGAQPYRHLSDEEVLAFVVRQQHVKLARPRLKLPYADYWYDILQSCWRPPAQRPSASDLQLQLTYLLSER
# Procedure: This exemplary assay has been developed to find inhibitors of LMTK3. The LMTK3 kinase domain (amino acids 133-415 of the full length kinase sequence, with an N-terminal GST tag) was expressed in insect cells and isolated via the GST N-terminal epitope.
# Kinase reactions are set up in the presence of 1% DMSO with ATP added at around KM (=10 μM). Kinase activity is monitored using the CisBio KinEASE STK S1 kit using a ratiometric fluorescent read-out at 665 and 620 nm. The assay uses 10 nM LMTK3, 1 μM S1 peptide, 10 mM MgCl2 in the manufacturer buffer with extension of reaction time to 120 mins at 37° C.
# Screening was performed in 384 low volume black microtitre plates with a final volume of 20 μl. The reaction was stopped with the addition of EDTA and detection reagents and fluorescence read on Pherastar. Data was normalised to the high control as specified by no inhibition and the low controls, equating to no activity (absence of ATP). Inhibitor activity was determined using concentration response curves, and using a four parameter fit to identify pIC50 values. Assay robustness was calculated using Z prime.
# [3] = test system: Tamoxifen resistant cell lines (LCC9, MLET5, BT-474); assay: WST-1 cell proliferation assay in tamoxifen resistant cell lines; format: cell-based; conditions: 20 nM siRNA, Tamoxifen 100 nM
# Procedure: Tamoxifen resistant cell lines (LCC9, MLET5, BT-474) were transfected with 20 nM of control siRNA or LMTK3 siRNA in the presence or absence of Tamoxifen (100 nM). Cells were subjected to the WST-1 cell proliferation assay, on the day of transfection (day 0) and then consecutive 48 h intervals. Absorbance was measured at 460 nm. Results represent the mean of three experiments per cell line ±SE.
# FIG. 28 Effects of LMTK3 silencing in tamoxifen-resistant cell lines. (a) BT-474, (b) MLET5 and, (c) LCC9 cells were transfected with LMTK3 siRNA in the presence or absence of tamoxifen (100 nM). Comparisons are shown amongst: i) siControl-transfected and tamoxifen treated cells (*), ii) siControl- and siLMTK3-transfected cells ($) and iii) tamoxifen treated and siLMTK3-transfected cells (p<0.05—Student's t test). Western blotting of AIB1 and p-ERα S118 protein expression levels are shown.
# The colorimetric Rapid Cell Proliferation kit (Calbiochem, UK) was used. The assay is based on the incubation of cells with the tatrazolium salt WST-1, which is cleaved by mitochondrial dehydrogenases, functional only in viable cells. […] The following day, cells were incubated with the WST-1 for 30 min at 37° C., according to manufacturer's instructions, and the absorbance read with the microplate reader at 460 nm was considered to be Day 0. […] Readings were repeated consecutively in 48 h intervals. […]
# [4] = test system: LMTK3 gene expression; assay: LMTK3 gene expression after E2 or tamoxifen; format: cell-based
# Procedure: Total RNA was isolated using the RNeasy kit (Qiagen). Reverse transcription was performed using high capacity cDNA reverse transcription kit (Applied Biosystems). RT-qPCR analysis was performed on a 7900HT Thermocycler (Applied Biosystems) using TaqMan mastermix and primers for TFF1, PGR, GREB1, FOXO3, FOXM1, LMTK1, LMTK2, LMTK3, MCL1 and GAPDH cDNAs, purchased from Applied Biosystems.
structure (smiles),measurement,setting,value
"C[C@]12CC[C@@H]3c4ccc(O)cc4CC[C@H]3[C@@H]1CC[C@@H]2O [E2, Estradiol]",decrease of ERα protein levels,"[1]; MCF7, E2 10 nM 24 h or 20 nM siRNA 72 h",~40%
CN(C)CCCn1cc(C2=C(c3c[nH]c4ccccc34)C(=O)NC2=O)c2ccccc21 [GF109203X],Average % Inhibition,[2],107.89%
same,Average pIC50,[2],9.88
COc1ccc2c(c1)c(C1=C(c3c[nH]c4ccccc34)C(=O)NC1=O)cn2CCCN(C)C [Go 6983],ERα protein levels under LMTK3 silencing with co-treatment,[1],partly rescues the LMTK3 siRNA-induced down-regulation of ERα
COC(=O)[C@@]1(O)C[C@H]2O[C@]1(C)n1c3ccccc3c3c4c(c5c6ccccc6n2c5c31)C(=O)NC4 [K-252a],IC50,[2],79.4 nM
same,Average % Inhibition,[2],98.91%
CCCCCCOC(=O)[C@]1(O)C[C@@H]2O[C@@]1(C)n1c3ccccc3c3c4c(c5c6ccccc6n2c5c31)C(=O)NC4 [KT5720],Average % Inhibition,[2],98.65%
same,Average pIC50,[2],9.93
CC(C)C[C@@H](C=O)NC(=O)[C@H](CC(C)C)NC(=O)[C@H](CC(C)C)NC(=O)OCc1ccccc1 [MG132] (Cbz-Leu-Leu-Leu-aldehyde),ERα protein levels under LMTK3 silencing with co-treatment,[1],partly rescued ERα degradation
CCCCCCCCCCCCCC(=O)O[C@@H]1[C@@H](C)[C@@]2(O)[C@@H](C=C(CO)C[C@]3(O)C(=O)C(C)=C[C@@H]23)[C@@H]2C(C)(C)[C@]12OC(C)=O [PMA],ERα protein levels under LMTK3 silencing with co-treatment,[1],further degrades ERα
CN[C@@H]1C[C@H]2O[C@@](C)([C@@H]1OC)n1c3ccccc3c3c4c(c5c6ccccc6n2c5c31)C(=O)NC4 [Staurosporine],IC50,[2],0.0024 nM
same,Average % Inhibition,[2],108.86%
CC/C(=C(\c1ccccc1)c1ccc(OCCN(C)C)cc1)c1ccccc1 [Tamoxifen],effect on growth of tamoxifen-resistant cell lines,[3],slightly affected basal cell growth
same,increase of ERα protein levels,"[1]; MCF7, Tam 100 nM 24 h",~50%
same,LMTK3 expression,[4],up-regulated
